By mass density is commonly meant the mass of a sample divided by its volume. A word on the vapor or sublimation pressure: it is the equilibrium pressure above the liquid or solid. By refractive index is commonly meant a measure of how strongly the sample bends light.

We go through 2 compounds from the NIST ThermoML archive (doi:10.1016/j.fluid.2016.08.015).

The conditions of series [1]: Liquid; for mass density: 293.15 K, 101.33 kPa, Vibrating tube method; for vapor or sublimation pressure: 298 K, Gas chromatography.
Series [2] can be described thus: refractive index (Na D-line) (dimensionless). Particulars: 293.15 K; 101.33 kPa; Liquid; Standard Abbe refractometry.

± gives the expanded uncertainty stated by the source.

Turning to `FC(F)(F)C(F)(F)C(F)(F)C(F)(F)C(F)(F)C(F)(F)C(F)(F)C(F)(F)C(F)(F)F` [eicosafluorononane], in series [1], the mass density turned out to be 1798 ± 1 kg/m3 and the “vapor or sublimation pressure” value is given as 2.57 ± 0.27 kPa. In addition, the refractive index in series [2] turned out to be 1.275 ± 0.001.

In the case of `FC(F)(F)C(F)(F)C(F)(F)C(F)(F)C(F)(F)C(F)(F)C(F)(F)F` [hexadecafluoroheptane], in series [1], the mass density was 1717 ± 1 kg/m3 and the “vapor or sublimation pressure” value stood at 10.12 ± 0.79 kPa. For the same compound, the refractive index in series [2] stood at 1.261 ± 0.001.
